Drawing on patent US20210040062A1, “AZOLE-SUBSTITUTED PYRIDINE COMPOUND” (TAISHO PHARMACEUTICAL CO., LTD., priority 2016, published 2021), this text covers IC50 for 35 molecules.

In general, IC50 refers to the concentration needed to halve the response being measured.

One assay addresses T1, human CYP4F2 (Homo sapiens, UniProt P78329).
T1 construct: host or cells: Escherichia coli (membrane fraction)
T1 sequence (P78329 5-520): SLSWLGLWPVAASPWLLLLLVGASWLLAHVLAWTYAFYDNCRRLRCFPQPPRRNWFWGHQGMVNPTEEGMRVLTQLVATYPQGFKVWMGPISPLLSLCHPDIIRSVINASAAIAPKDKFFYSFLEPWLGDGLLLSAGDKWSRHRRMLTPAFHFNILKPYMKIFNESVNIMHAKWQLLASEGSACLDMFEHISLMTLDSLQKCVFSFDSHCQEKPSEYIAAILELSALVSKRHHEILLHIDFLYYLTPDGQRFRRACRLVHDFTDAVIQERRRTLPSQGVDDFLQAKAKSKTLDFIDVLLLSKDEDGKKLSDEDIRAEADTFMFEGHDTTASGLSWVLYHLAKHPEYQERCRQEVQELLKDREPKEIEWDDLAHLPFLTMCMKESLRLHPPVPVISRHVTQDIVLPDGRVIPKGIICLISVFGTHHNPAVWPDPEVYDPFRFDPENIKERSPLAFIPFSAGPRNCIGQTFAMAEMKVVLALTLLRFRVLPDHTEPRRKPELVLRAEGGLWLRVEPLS
Put plainly: CYP4F2 inhibition test (Test Example 1). Type of assay: biochemical. Conditions: Escherichia coli membrane fraction expressing human CYP4F2, 2.5 μM luciferine derivative, room temperature 60 minutes, luminescence. In short, it runs like this: (§1)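 Luminescent read-out after adding luciferin detection reagent to a 60 min room-temperature reaction of compound with human CYP-expressing E. coli membrane fraction (100 μg/mL). Substrate and buffer differ: 60 μM luciferin derivative in Tris pH 7.5 with NADPH regeneration for CYP4A11; 2.5 μM in KPO4 pH 7.4 with 1 mM NADPH for CYP4F2.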

The target of another assay is T2, human CYP4A11 (Homo sapiens, UniProt Q02928).
T2 construct: host or cells: Escherichia coli (membrane fraction)
T2 sequence (Q02928 5-519): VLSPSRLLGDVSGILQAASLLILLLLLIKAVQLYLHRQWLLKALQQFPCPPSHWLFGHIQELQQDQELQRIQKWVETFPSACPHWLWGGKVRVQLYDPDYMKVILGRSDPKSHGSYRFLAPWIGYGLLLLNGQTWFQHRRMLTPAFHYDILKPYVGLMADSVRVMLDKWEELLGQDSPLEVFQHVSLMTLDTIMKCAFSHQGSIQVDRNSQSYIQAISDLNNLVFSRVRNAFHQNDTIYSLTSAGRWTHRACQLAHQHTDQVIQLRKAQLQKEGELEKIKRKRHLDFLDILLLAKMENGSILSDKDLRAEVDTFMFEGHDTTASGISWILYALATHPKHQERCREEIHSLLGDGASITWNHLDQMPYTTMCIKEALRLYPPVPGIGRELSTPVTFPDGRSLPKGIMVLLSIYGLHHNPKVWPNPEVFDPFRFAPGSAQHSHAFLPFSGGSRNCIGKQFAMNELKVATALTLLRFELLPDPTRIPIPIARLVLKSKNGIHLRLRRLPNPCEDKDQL
Put plainly: CYP4A11 inhibition test (Test Example 1). Particulars: Escherichia coli membrane fraction expressing human CYP4A11, 60 μM luciferine derivative, room temperature 60 minutes, luminescence. It is filed as biochemical. In outline: as §1

Turning to `CC(=O)N1CC(CCOc2ccc(-c3ccn[nH]3)nc2)C1` [Example 16-2, 1-[3-(2-{[6-(1H-Pyrazol-5-yl)pyridin-3-yl]oxy}ethyl)azetidin-1-yl]ethan-1-one], the IC50 at human CYP4F2 is 790 nM; against human CYP4A11, 10000 nM.

`CC(=O)N1CC(CCCOc2ccc(-c3ccn[nH]3)nc2)C1` [Example 16-3]: the IC50 against human CYP4F2 came out at 15 nM; against human CYP4A11, 4600 nM.

In the case of `CS(=O)(=O)c1cc(F)cc(COc2ccc(-c3ccn[nH]3)nc2)c1` [Example 16-5], the IC50 on human CYP4F2 came to 310 nM; at human CYP4A11, 79 nM.

For `CC(=O)N(C)[C@H]1C[C@@H](COc2ccc(-c3ccn[nH]3)nc2)C1` [Example 17-1-1, N-Methyl-N-[cis-3-({[6-(1H-pyrazol-5-yl)pyridin-3-yl]oxy}methyl)cyclobutyl]acetamide], the IC50 was determined as 20 nM against human CYP4F2 and 2000 nM against human CYP4A11.

As for `CC(=O)N(C)[C@H]1C[C@H](COc2ccc(-c3ccn[nH]3)nc2)C1` [Example 17-1-2, N-Methyl-N-[trans-3-({[6-(1H-pyrazol-5-yl)pyridin-3-yl]oxy}methyl)cyclobutyl]acetamide], the IC50 against human CYP4F2 is 19 nM; at human CYP4A11, 2700 nM.

In the case of `CN(C)S(=O)(=O)c1cc(COc2ccc(-c3ccn[nH]3)nc2)ccc1F` [Example 18-1, 2-Fluoro-N,N-dimethyl-5-({[6-(1H-pyrazol-5-yl)pyridin-3-yl]oxy}methyl)benzene-1-sulfonamide], the IC50 at human CYP4F2 is 140 nM; against human CYP4A11 it was 18 nM.

Consider `CN(C)S(=O)(=O)c1cc(COc2ccc(-c3ccn[nH]3)nc2)ccc1Cl` [Example 18-2], for which the half-maximal inhibitory concentration (IC50) on human CYP4F2 is 140 nM; on human CYP4A11, 58 nM.

Consider `O=S(=O)(CC1CC1)c1cccc(COc2ccc(-c3ccn[nH]3)nc2)c1` [Example 18-3], for which the results for the IC50 at human CYP4F2 and against human CYP4A11 were 27 nM and 24 nM, respectively.

With `O=C(CS(=O)(=O)c1cccc(COc2ccc(-c3ccn[nH]3)nc2)c1)N1CCC1` [Example 18-4], the IC50 at human CYP4F2 stood at 85 nM; against human CYP4A11 it was 76 nM.

As to `O=C(CS(=O)(=O)c1cccc(COc2ccc(-c3ccn[nH]3)nc2)c1)N1CCCC1` [Example 18-5], the values for the IC50 on human CYP4F2 and against human CYP4A11 were 47 nM and 140 nM, respectively.

On to `CCS(=O)(=O)c1cccc(COc2ccc(-c3ccn[nH]3)nc2)c1` [Example 18-6], for which the IC50 at human CYP4F2 turned out to be 93 nM; at human CYP4A11, 27 nM.

In the case of `CC(C)(C)OC(=O)Nc1cccc(COc2ccc(-c3ccn[nH]3)nc2)c1` [Example 18-7], the 50% inhibitory concentration (IC50) against human CYP4F2 turned out to be 95 nM; at human CYP4A11, 230 nM.

In the case of `CS(=O)(=O)c1cccc(COc2ccc(-c3ccn[nH]3)nc2)c1` [Example 18-8, 5-[(3-Methylsulfonylphenyl)methoxy]-2-(1H-pyrazol-5-yl)pyridine], the IC50 on human CYP4F2 stood at 260 nM; on human CYP4A11, 63 nM.

In the case of `Nc1cccc(COc2ccc(-c3ccn[nH]3)nc2)c1` [Example 19-1, 3-({[6-(1H-Pyrazol-5-yl)pyridin-3-yl]oxy}methyl)aniline], the IC50 on human CYP4F2 worked out at 46 nM; against human CYP4A11 it was 620 nM.

`CC(=O)N1CC[C@@H](COc2ccc(-c3ccn[nH]3)nc2)C1` [Example 20-1, 1-[(3R)-3-({[6-(1H-Pyrazol-5-yl)pyridin-3-yl]oxy}methyl)pyrrolidin-1-yl]ethan-1-one]: the IC50 turned out to be 240 nM against human CYP4F2 and 1600 nM at human CYP4A11.

On to `CC(=O)N1CC[C@H](COc2ccc(-c3ccn[nH]3)nc2)C1` [Example 20-2], for which the IC50 on human CYP4F2 was 240 nM; at human CYP4A11, 1600 nM.

Take `CC(=O)N1CCC[C@@H]1CCOc1ccc(-c2ccn[nH]2)nc1` [Example 20-3, 1-[(2R)-2-(2-{[6-(1H-Pyrazol-5-yl)pyridin-3-yl]oxy}ethyl)pyrrolidin-1-yl]ethan-1-one]: the IC50 was 2800 nM against human CYP4F2 and 1400 nM on human CYP4A11.

Regarding `CC(=O)N(C)[C@H]1CC[C@@H](Oc2ccc(-c3ccn[nH]3)nc2)CC1` [Example 20-4], the IC50 worked out at 180 nM against human CYP4F2 and 2400 nM at human CYP4A11.

On to `CC(=O)N(C)[C@H]1CC[C@H](Oc2ccc(-c3ccn[nH]3)nc2)CC1` [Example 20-5], for which the values for the IC50 at human CYP4F2 and against human CYP4A11 were 150 nM and 6400 nM, respectively.

For the molecule `CC(=O)N[C@H]1CC[C@@H](Oc2ccc(-c3ccn[nH]3)nc2)CC1` [Example 20-6], the IC50 is 310 nM against human CYP4F2 and 22000 nM at human CYP4A11.

Turning to `CC(=O)N[C@H]1CC[C@H](Oc2ccc(-c3ccn[nH]3)nc2)CC1` [Example 20-7], the IC50 was found to be 69 nM at human CYP4F2 and 35000 nM against human CYP4A11.

For `CC(=O)NCC12CC(COc3ccc(-c4ccn[nH]4)nc3)(C1)C2` [Example 21-1, N-{[3-({[6-(1H-Pyrazol-5-yl)pyridin-3-yl]oxy}methyl)bicyclo[1.1.1]pentan-1-yl]methyl}acetamide], the IC50 against human CYP4F2 worked out at 150 nM; on human CYP4A11, 1200 nM.

Take `CC(=O)N(C)CC12CC(COc3ccc(-c4ccn[nH]4)nc3)(C1)C2` [Example 22-1, N-Methyl-N-{[3-({[6-(1H-pyrazol-5-yl)pyridin-3-yl]oxy}methyl)bicyclo[1.1.1]pentan-1-yl]methyl}acetamide]: the concentration for half-maximal inhibition (IC50) was 19 nM at human CYP4F2 and 390 nM against human CYP4A11.

In the case of `CC(=O)N1CCC(COc2ccc(-c3[nH]ncc3F)nc2)CC1` [Example 23-1, 1-[4-({[6-(4-Fluoro-1H-pyrazol-5-yl)pyridin-3-yl]oxy}methyl)piperidin-1-yl]ethan-1-one], the figures for the IC50 at human CYP4F2 and at human CYP4A11 were 13 nM and 71 nM, respectively.

With `Clc1cn[nH]c1-c1ccc(OCC2CCOCC2)cn1` [Example 23-5], the IC50 on human CYP4F2 came out at 61 nM; at human CYP4A11, 52 nM.

On to `Clc1cn[nH]c1-c1ccc(OCCC2CCOCC2)cn1` [Example 23-6], for which the values for the IC50 at human CYP4F2 and at human CYP4A11 were 170 nM and 150 nM, respectively.

For `CC(=O)N1CCC(COc2cnc(-c3[nH]ncc3C)c(F)c2)CC1` [Example 24-2], the values for the 50% inhibitory concentration (IC50) against human CYP4F2 and on human CYP4A11 were 450 nM and 850 nM, respectively.

Regarding `CC(=O)N1CCC(COc2cnc(-c3ccn[nH]3)cc2C)CC1` [Example 24-3], the figures for the IC50 on human CYP4F2 and on human CYP4A11 were 35 nM and 120 nM, respectively.

Take `CC(=O)N1CCC(COc2ccc(-c3ccn[nH]3)nc2C)CC1` [Example 24-4]: the IC50 against human CYP4F2 was found to be 590 nM; on human CYP4A11 it was 8600 nM.

Take `COC(=O)N1CCC(CCOc2cnc(-c3ccn[nH]3)c(F)c2)CC1` [Example 24-6]: the IC50 against human CYP4F2 is 25 nM; against human CYP4A11, 64 nM.

Regarding `COc1cn[nH]c1-c1ccc(OCc2cccc(S(C)(=O)=O)c2)cn1` [Example 24-8], the results for the IC50 on human CYP4F2 and at human CYP4A11 were 2600 nM and 440 nM, respectively.

With `CN(C)S(=O)(=O)c1ccc(COc2ccc(-c3ccn[nH]3)nc2)cc1` [Example 25-3, N,N-Dimethyl-4-{[6-(1H-pyrazol-5-yl)pyridin-3-yl]oxymethyl}benzenesulfonamide], the results for the IC50 against human CYP4F2 and against human CYP4A11 were 140 nM and 1700 nM, respectively.

For `CS(=O)(=O)c1cccc(COc2cnc(-c3ccn[nH]3)c(F)c2)c1` [Example 25-5], the IC50 came to 110 nM against human CYP4F2 and 45 nM on human CYP4A11.

Regarding `FC(F)c1cc(COc2ccc(-c3ccn[nH]3)nc2)ccn1` [Example 25-6], the IC50 at human CYP4F2 came to 62 nM; against human CYP4A11, 95 nM.

For the molecule `FC(F)c1cncc(COc2ccc(-c3ccn[nH]3)nc2)c1` [Example 25-7], the IC50 against human CYP4F2 was determined as 57 nM; against human CYP4A11, 910 nM.
